# Measurements published in US20240301408A1, “MICRORNA 195 COMPOSITIONS AND METHODS FOR TREATING COGNITIVE IMPAIRMENT” (UNITED STATES GOVERNMENT AS REPRESENTED BY THE DEPARTMENT …, priority 2021, published 2024).
# Tests used:
# dynamin 1 (dyn1) = assay: dynamin 1 protein levels in cultured neurons after AAV2 miRNA over-expression; assay type: cell-based, mouse; conditions: neurons over-expressing miRNA; N=4/group
# Experimental: Mouse Neuronal and human iPSC culture. Primary cortical neurons were cultured (Zhu L et al., Proc Natl Acad Sci USA 2015, and Zhu L et al., J Biol Chem 2013) before being fixed and stained for confocal microscopy analysis (Zeiss LSM) (Berg I et al., Nat Protoc 2010). In some conditions, bovine serum albumin (BSA) or receptor-associated protein (RAP) was included in the cultured media (N=3/group). Alternatively, cultured neurons were transfected with adeno-associated virus 2 (AAV2)-containing miR-195-5p or miR-374 or scramble controls for 5 days before subjected to analysis. […]
# Brain and neuronal sample preparation and biochemical analysis. […] Levels of Aβ42, Aβ40, pTau, Tau and ApoE were determined using high-sensitive ELISA kits. […]
# Statistical analysis. […] Levels of miR-195-5p and miR-374 were normalized to U6 and RNU6B (internal controls) while synj1 mRNA normalized to GAPDH and 18s, and then expressed as Log2fold of changes when compared to controls. Levels of synj1, dyn1, pTau, Tau, and holoAPP were normalized to β-actin levels and expressed as a percentage of the control. Absolute Aβ42, Aβ40, pTau, Tau, and ApoE concentrations were quantitatively determined by ELISA and expressed as a percentage of the control. […] Pearson correlation coefficients were calculated to determine the linear relationship between the two variables. […]
# [1] = system: microglia-specific gene profiles, E4FAD mouse brain; assay: scRNA-seq of EFAD mouse brains with miR-195-5p over-expression; assay type: in vivo; conditions: Mic.C0 and Mic.C2 microglial sub-clusters; N=4 pooled mice/condition
# Experimental: Changes in microglia-specific gene profiles with miR-195-5p over-expression in E4FAD mouse brain. scRNA-seq analysis of EFAD mouse brains with miR-195-5p over-expression was performed (FIG. 15; N=4 pooled mice/condition). Single cell suspensions were prepared and processed with the 10× Genomics Chromium platform. After quality control (QC), the gene-level UMIs data were normalized by a regularized negative binomial regression analysis (Hafemeister, C. & Satija, R. Genome Biology 20, 296, (2019)). Genes were selected that were detected in more than one cell and cells with sequencing reads in 200˜4,000 genes and mitochondrial read rate of less than 50%. […] The significant principal components as determined by a JackStraw permutation procedure were selected for cell clustering using Seurat's graph-based clustering approach (Butler, A., et al. Nature Biotechnology 36, 411, (2018)). […] After removing predicted doublets from the clusters, the cluster marker genes were observed and the expression patterns of known gene markers were analyzed to annotate clusters into major cell-types: excitatory neurons (Ex; marked by NRGN), inhibitory neurons (In; GAD1), astrocytes (Ast; AQP4, GFAP), oligodendrocytes (Oli; PLP1, MBP), microglia (Mic; CSF1R, CD74), oligodendrocyte progenitor cells (Opc; VCAN), and endothelial cells (End; FLT1). […]
sequence,measurement,setting,value
"UAGCAGCACAGAAAUAUUGGC (chemistry not given here) [miR-195-5p, over-expressed via AAV2-containing miR-195-5p from ABM Inc]",dyn protein levels,dynamin 1 (dyn1),97.7 % of controls
same,top GO pathways enriched with microglial sub-cluster DEGs,[1],down-regulates innate immune system and effector responses
